Where a name gives a salt, the structure may show the parent alone.

The target of the assay is T1, AspiOBP2.
T1 construct: signal peptide removed; pET-30a(+) BamHI/EcoRI, E. coli BL21; His-tag kept; about 27 kDa predicted; clone primers encode mature start ETSTVDS and C-terminus PPPKP
In words: fluorescent probe titration, Scatchard. The class given is binding, Aleurocanthus spiniferus. The following applies: 50 mmol/L Tris-HCl pH 7.4, 2 µmol/L protein, excitation 295 nm, His-tag kept.

Turning to `O=S(=O)(O)c1cccc2c(-c3ccc(Nc4ccccc4)c4c(S(=O)(=O)O)cccc34)ccc(Nc3ccccc3)c12` [bis-ANS, 4,4′-Dianilino-1,1′-binaphthyl-5,5′-disulfonic acid, dipotassium salt], the affinity, expressed as Kd, was 2260 ± 470 nM.

A word on the Kd: it is the free concentration of one partner at which half of the binding sites on the other are occupied at equilibrium, for simple one-to-one binding. High values mean a looser complex, low ones a tighter complex.

(Values after PMC12469831, “The Odorant-Binding Proteins AspiOBP1 and AspiOBP2 in Aleurocanthus spiniferus Are Involved in the Perception of Host Volatiles” (International Journal of Molecular Sciences, 2025).)
